The text below walks through data of PubChem BioAssay AID504759 (National Center for Advancing Translational Sciences (NCATS), 2011).

The data set deals with Caco-2 monolayer bidirectional permeability, LC-MS/MS. The experiment in a line: Inhibitors of Cruzain: Efflux Ratio Profiling. The following applies: stronger effect = lower value. An excerpt:
Chagas Disease is a neglected tropical disease that affects over 16 million people in Latin America. The cysteine protease cruzain is essential for the survival Trypanosoma cruzi, the parasitic agent responsible for Chagas disease. Potential intervention for T. cruzi includes the inhibition of cruzain. This bioassay will summarize the ongoing development of small molecule cruzain inhbitiors. Currently, a screen of ~200k compounds and through extensive follow-up work a probe was identified. To further characterize the probe, it was tested in in vitro ADME assays. This bioassays provides profiling data on Caco-2 cell permeability of leads compounds developed for the HPGD project. This in vitro model is often predictive of in vivo efflux of the compound by measuring the ratio of transport in and out the plasma membrane of the Caco2-cell line. NIH Chemical Genomics Center [NCGC] NIH Molecular Libraries Probe Production Centers Network [MLPCN] MLSCN Grant: DA024891-01 PI Name: Dr. Brian Shoichet; University of California, San Francisco
1. Buffer Preparation: Prepare 1M HEPES: add 23.83g HEPES to 100ml of 0.85% NaCl Prepare HBSS+ buffer: add 12.8ml of 1M HEPES in 0.85% NaCl to 500ml HBSS buffer. 2. […] The T0, LY and T90, LY plates are read by FlexStation 3 at excitation of 485 nm and emission of 535 nm to determine LY permeability. […]

For orientation: efflux ratio means a quotient of directional permeabilities that is used to spot active efflux.

With `Cc1ccc(OCCn2c(CCNC(=O)C3CCCCC3)nc3ccccc32)cc1`, the efflux ratio was 1.1.
